Experimental data taken from paper PMC6225178 (Molecules : A Journal of Synthetic Chemistry and Natural …, 2018).

System: not listed separately
Assay: DPPH assay
Conditions: not given
Method: The 2,2-diphenyl-1-picrylhydrazyl (DPPH) assay was performed using a previously reported method with a modification. A series of samples consisting of 900 μL of the 0.04 mg/mL methanolic solution of DPPH and different concentrations of the compounds (100 μL) were prepared. Then, the absorbance at 517 nm was measured after a 30 min incubation at room temperature. The half maximal inhibitory concentration (IC50) was used as an indicating measure of the scavenging activity.

Row | Compound | DPPH scavenging ability (in words)
1 | CC(=O)/C=C/c1ccccc1O [Compound 6, 4-(2′-hydroxyphenyl)-3(E)-buten-2-one] | no scavenging ability
2 | COC(=O)/C=C/c1ccc(O)cc1 [Compound 8, 3-(4′-Hydroxyphenyl)-(E)-propenoic acid methyl ester] | no scavenging ability
3 | COC(=O)/C=C/c1ccccc1O [Compound 9, 3-(2.′-Hydroxyphenyl)-(E)-propenoic acid methyl ester] | no scavenging ability
4 | COC(=O)/C=C/c1cccc(O)c1 [Compound 10, 3-(3′-Hydroxyphenyl)-(E)-propenoic acid methyl ester] | no scavenging ability
5 | CC(=O)/C=C/c1cccc(O)c1 [Compound 15, 4-(3′-hydroxyphenyl)-3(E)-buten-2-one] | no scavenging ability
6 | CC(=O)/C=C/c1ccc(O)cc1 [Compound 16, 4-(4′-hydroxyphenyl)-3(E)-buten-2-one] | no scavenging ability

Same assay, conditions: 30 min incubation at room temperature, absorbance 517 nm; n.a. ^c = no protection detected; n.a. ^d = IC50 > 5 mM

Row | Compound | IC50
7 | O=C(O)/C=C/c1ccc(O)c(O)c1 [CA, caffeic acid, reference compound] | 32.2 µM
8 | COC(=O)/C=C/c1ccc(O)c(OC)c1 [Compound 14, 3-(4′-hydroxy-3-metoxyphenyl)-(E)-propenoic acid methyl ester] | 58.9 µM

Next, values leading:

Row | IC50 | Compound
9 | 1020 µM | COC(=O)/C=C/c1ccc(O)cc1O [Compound 11, 3-(2′,4′-dihydroxyphenyl)-(E)-propenoic acid methyl ester]
10 | 18.6 µM | COC(=O)/C=C/c1ccc(O)c(O)c1O [Compound 12, 3-(2′,3′,4′-trihydroxyphenyl)-(E)-propenoic acid methyl ester]
11 | 53.3 µM | COC(=O)/C=C/c1cc(O)c(O)cc1O [Compound 13, 3-(2′,4′,5′-trihydroxyphenyl)-(E)-propenoic acid methyl ester]
12 | 688 µM | CC(=O)/C=C/c1ccc(O)cc1O [Compound 17, 4-(2′,4′-dihydroxyphenyl)-3(E)-buten-2-one]
13 | 16.8 µM | CC(=O)/C=C/c1ccc(O)c(O)c1O [Compound 18, 4-(2′,3′,4′-trihydroxyphenyl)-3(E)-buten-2-one]
14 | 61.8 µM | COc1cc(/C=C/C(C)=O)ccc1O [Compound 20, 4-(3′-methoxy-4′-hydroxyphenyl)-3(E)-buten-2-one]

System: normal human dermal fibroblast (NHDF) cell line
Assay: Cell viability assay (MTT) in the NHDF cell line
Assay type: cell-based
Conditions: highest concentration
Method: The cytotoxicity test was performed as described in [44] using the NHDF cell line treated with the methanolic solution of the tested compounds to obtain the final concentrations of 12.5, 25, 50, 100, 200, or 250 µM, and incubation for 24 and 48 h. Cell viability was assessed by the MTT method.

Row | Compound | effect on viability of NHDF cells after 48 h (in words)
15 | COC(=O)/C=C/c1cc(O)c(O)cc1O [Compound 13, 3-(2′,4′,5′-trihydroxyphenyl)-(E)-propenoic acid methyl ester] | this effect after 48 h was not clearly noticeable
16 | COc1cc(/C=C/C(C)=O)ccc1O [Compound 20, 4-(3′-methoxy-4′-hydroxyphenyl)-3(E)-buten-2-one] | this effect after 48 h was not clearly noticeable

System: not listed separately
Assay: Oxidation inhibition of the o/w emulsion (TBARS)
Conditions: not given
Method: The emulsion containing 15 mg of sorbitan sesquioleate, 50 mg of flaxseed oil, and 2 mL of 10 mM Tris-HCl buffer, pH 7.4, was prepared by the method. Determination of the oxidation inhibition of the o/w emulsion was carried out according to a procedure described previously, using 20 μL of the 1:1 (v/v) buffer-diluted emulsion, methanolic solution of each compound (final concentration 100 μM), and ammonium iron(II) sulfate hexahydrate (Mohr′s salt) (5 mM). Thiobarbituric acid reacting substances (TBARS) were determined according to [44].

Row | Compound | antioxidant activity compared with caffeic acid (in words)
17 | COC(=O)/C=C/c1ccc(O)c(O)c1O [Compound 12, 3-(2′,3′,4′-trihydroxyphenyl)-(E)-propenoic acid methyl ester] | higher antioxidant activity than caffeic acid
18 | COC(=O)/C=C/c1cc(O)c(O)cc1O [Compound 13, 3-(2′,4′,5′-trihydroxyphenyl)-(E)-propenoic acid methyl ester] | higher antioxidant activity than caffeic acid
19 | CC(=O)/C=C/c1ccc(O)c(O)c1O [Compound 18, 4-(2′,3′,4′-trihydroxyphenyl)-3(E)-buten-2-one] | higher antioxidant activity than caffeic acid

Same assay, conditions: determined at 100 µM; oxidation induced with Mohr's salt 5 mM; TBARS; n.a. ^c = no protection detected

Row | Compound | Inhibition of Oxidation of o/w Emulsion
20 | O=C(O)/C=C/c1ccc(O)c(O)c1 [CA, caffeic acid, reference compound] | 26.1 ± 2.9
21 | COC(=O)/C=C/c1ccc(O)cc1 [Compound 8, 3-(4′-Hydroxyphenyl)-(E)-propenoic acid methyl ester] | 22.7 ± 6.4
22 | COC(=O)/C=C/c1ccccc1O [Compound 9, 3-(2.′-Hydroxyphenyl)-(E)-propenoic acid methyl ester] | 2.6 ± 1.5
23 | COC(=O)/C=C/c1cccc(O)c1 [Compound 10, 3-(3′-Hydroxyphenyl)-(E)-propenoic acid methyl ester] | 18.4 ± 2.2
24 | COC(=O)/C=C/c1ccc(O)cc1O [Compound 11, 3-(2′,4′-dihydroxyphenyl)-(E)-propenoic acid methyl ester] | 33.7 ± 6.5
25 | COC(=O)/C=C/c1ccc(O)c(O)c1O [Compound 12, 3-(2′,3′,4′-trihydroxyphenyl)-(E)-propenoic acid methyl ester] | 55.5 ± 2
26 | COC(=O)/C=C/c1cc(O)c(O)cc1O [Compound 13, 3-(2′,4′,5′-trihydroxyphenyl)-(E)-propenoic acid methyl ester] | 38.6 ± 2.3
27 | COC(=O)/C=C/c1ccc(O)c(OC)c1 [Compound 14, 3-(4′-hydroxy-3-metoxyphenyl)-(E)-propenoic acid methyl ester] | 14.8 ± 2
28 | CC(=O)/C=C/c1ccc(O)cc1 [Compound 16, 4-(4′-hydroxyphenyl)-3(E)-buten-2-one] | 6.8 ± 4.4
29 | CC(=O)/C=C/c1ccc(O)cc1O [Compound 17, 4-(2′,4′-dihydroxyphenyl)-3(E)-buten-2-one] | 4.6 ± 1.3
30 | CC(=O)/C=C/c1ccc(O)c(O)c1O [Compound 18, 4-(2′,3′,4′-trihydroxyphenyl)-3(E)-buten-2-one] | 28.6 ±4
31 | COc1cc(/C=C/C(C)=O)ccc1O [Compound 20, 4-(3′-methoxy-4′-hydroxyphenyl)-3(E)-buten-2-one] | 7.9 ± 2.1

Same assay, conditions: o/w emulsion model

Row | Compound | protection against the induced oxidation (in words)
32 | COC(=O)/C=C/c1ccc(O)c(O)c1O [Compound 12, 3-(2′,3′,4′-trihydroxyphenyl)-(E)-propenoic acid methyl ester] | highest protection against the induced oxidation
33 | COC(=O)/C=C/c1cc(O)c(O)cc1O [Compound 13, 3-(2′,4′,5′-trihydroxyphenyl)-(E)-propenoic acid methyl ester] | highest protection against the induced oxidation
34 | CC(=O)/C=C/c1ccc(O)c(O)c1O [Compound 18, 4-(2′,3′,4′-trihydroxyphenyl)-3(E)-buten-2-one] | highest protection against the induced oxidation
